Reference: patent US5283353A, “Preparation of 1-amino-1-deoxyoligosaccharides and derivatives thereof” (Genzyme Corporation, priority 1990, dated 1994)
Where two headings read alike, the source gives them in different places.

Legend:
[1] = cited from earlier work
[2] = Hydrolysis of 1-amino-1-deoxy-N-acetylglucosamine to 2-acetamido-2-deoxy-D-glucose in 50 mM phosphate p2H 7.0 buffer, followed by 1H NMR; assay type: physicochemical; details: for Pseudo-first order rate constant for hydrolysis: calculated
Description: To a solution of 1 mg of turkey ovomucoid glycopeptide (a heterogeneous mixture of three structurally related complex type oligosaccharides purified as described by E. M. Taga et al., Biochemistry, 23, 815-822 (1984)) in 50 mM phosphate, p^2 H 7.0 buffer in 99.96% ^2 H2 O equilibrated at the desired temperature was added the almond amidohydrolase enzyme to give a total volume of 0.5 ml. The reaction was followed by ^1 H NMR. The hydrolysis of 1-amino-1-deoxy-N-acetylglucosamine in 50 mM phosphate, p^2 H 7.0, buffer in 99.96% ^2 H2 O to 2-acetamido-2-deoxy-D-glucose was followed by ^1 H NMR as a reference compound. The proton peaks of interest were integrated and the pseudo first-order rate constant was calculated from the slope of a plot of the natural logarithm of the peak area as a function of time.
The rate of hydrolysis for the model compound was readily measured using ^1 H NMR. Upon hydrolysis, the ^1 H NMR signal for the anomeric proton of the model compound shifts downfield from 4.189 ppm (J1,2 =9.35 Hz) to 5.195 ppm (J1,2 =3.38 Hz) and 4.709 ppm (J1,2 =3.38 Hz), the former the alpha-anomer and the latter the beta-anomer of the product, N-acetylglucosamine, while the chemical shift of the N-acetyl group is unchanged. The pseudo-first order rate constants for the enzyme-catalyzed reaction and for the hydrolysis of the model compound are given in Table I; based on least squares standard error analysis, the precision in the pseudo-first order rate constant is ±5%. These limited data give energies of activation for the enzyme-catalyzed reaction of 9.5 kcal […] and for the model compound of 17.7 kcal mol^1.

In the case of CC(=O)N[C@@H]1[C@@H](O)[C@H](O)[C@@H](CO)O[C@H]1N [1-Amino-N-acetylglucosamine, 1-amino-1-deoxy-N-acetylglucosamine], the “Pseudo-first order rate constant for hydrolysis” value (“Pseudo-first order rate constant” for short) ([1]; p2H 7.0, 22 °C) is listed as 0.88 10^3 × k (min^-1), the “Pseudo-first order rate constant” value ([1]; p2H 7.0, 37 °C) is listed as 3.81 10^3 × k (min^-1) and the “Pseudo-first order rate constant” value ([2]; p2H 7.0, 24 °C) is listed as 1.08 10^3 × k (min^-1). For the same compound, the “Pseudo-first order rate constant” value ([2]; p2H 7.0, 39 °C) was 4.56 10^3 × k (min^-1) and the “Energy of activation for hydrolysis of the model compound” value ([2]; p2H 7.0, from rate constants of Table I) was 17.7 kcal mol^1.
